Laboratory results from patent US10898469B2, “Imidazolylamide derivative” (Sumitomo Dainippon Pharma Co., Ltd., priority 2016, dated 2021).
Counter-ions that a name gives are not always drawn.

Assays:
Format in all cases: cell-based, human
[1] = test system: FaDu cells; assay: Inhibition test for sphere-forming ability of cancer cells in the presence of BSA (Test Example 2), FaDu; conditions: in the presence of 5% BSA, cultured 4 days
Procedure: Human colorectal cancer-derived HCT-116 cells, human colon-adenocarcinoma-derived HT-29 cells, and human pharyngeal cancer-derived FaDu cells were available from American Type Culture Collection (ATCC). HCT-116 cells and HT-29 cells were cultured at 37° C. under 5% CO2 using the McCoy's 5a medium containing 10% fetal bovine serum (FBS) and 1% penicillin/streptomycin, and FaDu cells were cultured at 37° C. under 5% CO2 using the MEM medium containing 10% FBS, 1% non-essential amino acid, 1% sodium pyruvate, 5% bovine serum albumin (BSA), and 1% penicillin/streptomycin. HCT-116 cells, HT-29 cells, and FaDu cells were seeded in a 384 Well Black Clear Bottom Ultra-Low Attachment Microplate (Corning Cat. No. 3827) in an amount of 350-800 cells/well using the DMEM/F12 medium containing 2% B27 supplement (GIBCO), 20 ng/mL epidermal growth factor (EGF) (peprotech), 10 ng/mL basic fibroblast growth factor (bFGF) (peprotech), 5 μg/mL insulin (Sigma), 5% bovine serum albumin (BSA), and 1% penicillin/streptomycin. Each test compound was added into each well to adjust the final concentration of DMSO to 0.1%, and the cells were cultured for 4 days. The number of viable cells in each well was then measured with CellTiter-Glo® Luminescent Cell Viability Assay (Promega) to calculate the concentration of each test compound for 50% inhibition of cell proliferation (Sphere IC50 value; μmol/L).
The experiment of Test Example 2 was performed for each compound of each Example.
The concentration of each test compound for 50% inhibition of cell proliferation (Sphere IC50 value; μmol/L) is shown in the following Table.

[2] = test system: FaDu cells; assay: Inhibition test for sphere-forming ability of cancer cells (Test Example 1), FaDu; conditions: concentration for 50% inhibition of cell proliferation, read-out: IC50 (μmol/L) FaDu (Sphere IC50 value)
How it was run: (§1)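 Under non-adherent, serum-free conditions with growth factors (EGF 20 ng/mL, bFGF 10 ng/mL), 350-800 cells per well formed spheres in the presence of test compound at 0.1% DMSO. Viable cell number after 4 days, by CellTiter-Glo, defined the 50% inhibitory concentration.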

[3] = test system: HCT-116 cells; assay: Inhibition test for sphere-forming ability of cancer cells (Test Example 1), HCT-116; conditions: for IC50: HCT-116 cells, concentration for 50% inhibition of cell proliferation, read-out: IC50 (μmol/L) HCT-116 (Sphere IC50 value); for inhibitory effect on the sphere-forming ability of cancer cells: Test Example 1, summary in words, cell line not given (HCT-116, HT-29, FaDu tested)
How it was run: as §1

[4] = test system: HCT-116 cells; assay: Inhibition test for sphere-forming ability of cancer cells in the presence of BSA (Test Example 2), HCT-116; conditions: for IC50: HCT-116 cells, in the presence of 5% BSA, cultured 4 days; for inhibitory effect on the sphere-forming ability of cancer cells: Test Example 2, in the presence of 5% BSA, summary in words, cell line not given (HCT-116, HT-29, FaDu tested)
How it was run: (§2)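 Spheres grown 4 days in ultra-low-attachment wells, 350-800 cells/well, in DMEM/F12 with 2% B27, 20 ng/mL EGF, 10 ng/mL bFGF, 5 μg/mL insulin and 5% BSA; 0.1% DMSO final. Viable cells read by CellTiter-Glo luminescence; Sphere IC50 (μmol/L) for 50% proliferation inhibition.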

[5] = test system: HT-29 cells; assay: Inhibition test for sphere-forming ability of cancer cells (Test Example 1), HT-29; conditions: concentration for 50% inhibition of cell proliferation, read-out: IC50 (μmol/L) HT-29 (Sphere IC50 value)
How it was run: as §1

[6] = test system: HT-29 cells; assay: Inhibition test for sphere-forming ability of cancer cells in the presence of BSA (Test Example 2), HT-29; conditions: in the presence of 5% BSA, cultured 4 days
How it was run: as §2

IC50 ([1]; Homo sapiens, 96 h)	IC50 ([2]; Homo sapiens)	IC50 ([3]; Homo sapiens)	IC50 ([4]; Homo sapiens, HCT-116, 96 h)	IC50 ([5]; Homo sapiens)	IC50 ([6]; Homo sapiens, 96 h)	IC50 [1]	IC50 [2]	IC50 [3]	IC50 [4]	IC50 [5]	IC50 [6]	Structure (SMILES)	inhibitory effect on the sphere-forming ability of cancer cells [3]	inhibitory effect on the sphere-forming ability of cancer cells [4]
30 nM	0.06 µmol/L	0.06 µmol/L	60 nM	0.07 µmol/L	60 nM	–	–	–	–	–	–	COc1ccc(/C=C/C(=O)Nc2cn(Cc3cc(F)c(F)c(F)c3)cn2)cc1OCCO [Example 32, (E)-3-(3-(2-Hydroxyethoxy)-4-methoxyphenyl)-N-(1-(3,4,5-trifluorobenzyl)-1H-imidazol-4-yl)acrylamide]	particularly potent inhibitory effect	particularly potent inhibitory effect
–	–	–	–	–	–	5040 nM	1.73 µmol/L	3.56 µmol/L	> 10000 nM	1.51 µmol/L	5460 nM	COc1ccc(C(=O)Nc2cn(Cc3ccc(F)cc3C(F)(F)F)cn2)cc1OC [Example 163]	–	–
580 nM	0.07 µmol/L	0.42 µmol/L	6860 nM	0.45 µmol/L	2710 nM	–	–	–	–	–	–	O=C(/C=C/c1ccc(F)c(OCCO)c1)Nc1cn(Cc2cccc(C(F)(F)F)c2)cn1 [Example 39, (E)-3-(4-Fluoro-3-(2-hydroxyethoxy)phenyl)-N-(1-(3-(trifluoromethyl)benzyl)-1H-imidazol-4-yl)acrylamide Hydrochloride]	–	–
150 nM	0.42 µmol/L	0.09 µmol/L	570 nM	0.09 µmol/L	630 nM	–	–	–	–	–	–	COc1ccc(C(=O)Nc2cn(Cc3cc(F)cc(F)c3)cn2)cc1OC [Example 152, 3,4-dimethoxy-N-[1-(3,5-difluorobenzyl)-1H-imidazol-4-yl]benzamide]	particularly potent inhibitory effect	–
580 nM	0.05 µmol/L	0.48 µmol/L	7450 nM	0.18 µmol/L	3330 nM	–	–	–	–	–	–	O=C(/C=C/c1ccc(F)c(OCCO)c1)Nc1cn(Cc2cccc(Cl)c2)cn1 [Example 40]	–	–
–	–	–	–	–	–	660 nM	0.82 µmol/L	0.66 µmol/L	6390 nM	0.73 µmol/L	3200 nM	COc1ccc(C(=O)Nc2cn(Cc3ccc(F)c(F)c3F)cn2)cc1OC [Example 153]	–	–
960 nM	0.93 µmol/L	0.95 µmol/L	6350 nM	0.84 µmol/L	5210 nM	–	–	–	–	–	–	COc1ccc(C(=O)Nc2cn(Cc3cc(F)c(F)cc3F)cn2)cc1OC [Example 143, 3,4-Dimethoxy-N-[1-(2,4,5-trifluorobenzyl)-1H-imidazol-4-yl]benzamide]	–	–
550 nM	0.85 µmol/L	0.63 µmol/L	4930 nM	0.52 µmol/L	650 nM	–	–	–	–	–	–	COc1ccc(C(=O)Nc2cn(Cc3cccc(Cl)c3)cn2)cc1OC [Example 141, N-[1-(3-chlorobenzyl)-1H-imidazol-4-yl]-3,4-dimethoxybenzamide]	–	–
460 nM	0.35 µmol/L	0.66 µmol/L	790 nM	0.13 µmol/L	550 nM	–	–	–	–	–	–	O=C(/C=C/c1ccc(NC(=O)CO)cc1)Nc1cn(Cc2cccc(Cl)c2)cn1 [Example 7, (E)-N-(1-(3-Chlorobenzyl)-1H-imidazol-4-yl)-3-(4-(2-hydroxyacetylamino)phenyl)acrylamide]	–	–
–	–	–	–	–	–	910 nM	3.12 µmol/L	0.78 µmol/L	6830 nM	0.83 µmol/L	5970 nM	COc1ccc(C(=O)Nc2cn(Cc3cccc(F)c3F)cn2)cc1OC [Example 147]	–	–
600 nM	0.17 µmol/L	0.55 µmol/L	830 nM	0.18 µmol/L	620 nM	–	–	–	–	–	–	CCCC(=O)Nc1ccc(/C=C/C(=O)Nc2cn(Cc3cccc(Cl)c3)cn2)cc1 [Example 6, (E)-N-(4-(3-((1-(3-Chlorobenzyl)-1H-imidazol-4-yl)amino)-3-oxoprop-1-en-1-yl)phenyl)butylamide]	–	–
60 nM	0.08 µmol/L	< 0.01 µmol/L	260 nM	0.08 µmol/L	70 nM	–	–	–	–	–	–	CC(=O)Nc1ccc(/C=C/C(=O)Nc2cn(Cc3cc(F)c(F)c(F)c3)cn2)cc1 [Example 11, (2E)-3-[4-(acetylamino)phenyl]-N-[1-(3,4,5-trifluorobenzyl)-1H-imidazol-4-yl]prop-2-enamide]	particularly potent inhibitory effect	particularly potent inhibitory effect
–	–	–	–	–	–	420 nM	0.55 µmol/L	0.54 µmol/L	5070 nM	0.39 µmol/L	590 nM	COc1ccc(C(=O)Nc2cn(Cc3cc(F)c(F)c(F)c3F)cn2)cc1OC [Example 156]	–	–
40 nM	0.05 µmol/L	0.06 µmol/L	360 nM	0.05 µmol/L	60 nM	–	–	–	–	–	–	COc1ccc(C(=O)Nc2cn(Cc3cc(F)c(F)c(F)c3)cn2)cc1OC [Example 236, 3,4-dimethoxy-N-[1-(3,4,5-trifluorobenzyl)-1H-imidazol-4-yl]benzamide]	particularly potent inhibitory effect	particularly potent inhibitory effect
–	–	–	–	–	–	3090 nM	0.67 µmol/L	0.76 µmol/L	6810 nM	0.71 µmol/L	4090 nM	O=C(Nc1ccc(Cn2cccn2)cc1)c1cn(Cc2cccc(Cl)c2)cn1 [Example 260]	–	–
–	–	–	–	–	–	5640 nM	8.46 µmol/L	7.33 µmol/L	> 10000 nM	6.89 µmol/L	7420 nM	COc1ccc(C(=O)Nc2cn(Cc3c(F)c(F)c(F)c(F)c3F)cn2)cc1OC [Example 157]	–	–
60 nM	0.04 µmol/L	0.06 µmol/L	360 nM	< 0.01 µmol/L	60 nM	–	–	–	–	–	–	O=C(/C=C/c1ccc(NCC(F)F)nc1)Nc1cn(Cc2cccc(Cl)c2)cn1 [Example 14, (E)-N-(1-(3-Chlorobenzyl)-1H-imidazol-4-yl)-3-(6-((2,2-difluoroethyl)amino)pyridin-3-yl)acrylamide]	particularly potent inhibitory effect	particularly potent inhibitory effect

Structure (SMILES)	IC50 ([1]; Homo sapiens, 96 h)	IC50 ([2]; Homo sapiens)	IC50 ([3]; Homo sapiens)	IC50 ([4]; Homo sapiens, HCT-116, 96 h)	IC50 ([5]; Homo sapiens)	IC50 ([6]; Homo sapiens, 96 h)	IC50 [1]	IC50 [2]	IC50 [3]	IC50 [4]	IC50 [5]	IC50 [6]	inhibitory effect on the sphere-forming ability of cancer cells [3]	inhibitory effect on the sphere-forming ability of cancer cells [4]
CNc1ccc(/C=C/C(=O)Nc2cn(Cc3cccc(C(F)(F)F)c3)cn2)cn1 [Example 17]	–	–	–	–	–	–	50 nM	0.08 µmol/L	0.08 µmol/L	640 nM	0.04 µmol/L	350 nM	particularly potent inhibitory effect	particularly potent inhibitory effect
O=C(/C=C/c1ccc(NCC(F)(F)F)nc1)Nc1cn(Cc2cccc(Cl)c2)cn1 [Example 15]	–	–	–	–	–	–	60 nM	0.07 µmol/L	< 0.01 µmol/L	80 nM	0.06 µmol/L	60 nM	particularly potent inhibitory effect	particularly potent inhibitory effect
